Here are results for 18 molecules from PubChem BioAssay AID330 (DTP/NCI, 2004).

“And” between values parts separate entries of the source, which are not always exact repeats. Equal values may be shown once. Inconclusive results and toxic doses are left out.

The experiment deals with P388 leukemia ip, CD2F1 mice, survival T/C. In words: NCI In Vivo Anticancer Drug Screen. Data for tumor model P388 Leukemia (intraperitoneal) in CD2F1 (CDF1) mice. Particulars: endpoint: median survival time, higher = longer survival. A digest of the protocol:
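Mice carrying the transplanted tumor received test compound or vehicle. Survival was recorded in each group, and the value is the treated-group measurement divided by that of the vehicle-treated control group.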

Where [1] appears, read: dose: 25.0 mg/kg/injection, schedule: Q01DX009 (ip), vehicle: saline with Tween-80.
The mark [2] stands for this setting: dose: 50.0 mg/kg/injection, schedule: Q01DX009 (ip), vehicle: saline with Tween-80.
[3] abbreviates: dose: 50.0 mg/kg/injection, schedule: Q01DX005 (ip), vehicle: saline with Tween-80.
[4] abbreviates: dose: 100.0 mg/kg/injection, schedule: Q01DX005 (ip), vehicle: saline with Tween-80.
[5] abbreviates: dose: 200.0 mg/kg/injection, schedule: Q01DX005 (ip), vehicle: saline with Tween-80.
Setting [6] is: dose: 100.0 mg/kg/injection, schedule: Q01DX009 (ip), vehicle: saline with Tween-80.
The mark [7] stands for this setting: dose: 200.0 mg/kg/injection, schedule: Q01DX009 (ip), vehicle: saline with Tween-80.

Regarding `CCCCCCC[n+]1cccc(C(=O)N2CCOCC2)c1`, the T/C (dose: 12.5 mg/kg/injection, schedule: Q01DX009 (ip), vehicle: saline with Tween-80) was 104 % of control; the T/C under setting [1] is 98 % of control; the T/C under setting [2] is 100 % of control.
Regarding `COc1ccc(Cc2cc(O)c(O)cc2C)cc1`, the T/C runs as follows: (dose: 2.5 mg/kg/injection, schedule: Q01DX009 (ip), vehicle: saline with Tween-80) 108 % of control; (dose: 5.0 mg/kg/injection, schedule: Q01DX009 (ip), vehicle: saline with Tween-80) 105 % of control; (dose: 10.0 mg/kg/injection, schedule: Q01DX009 (ip), vehicle: saline with Tween-80) 108 % of control.
As for `O=C(CCSCCC(=O)N/N=C/C(O)C(O)C(O)C(O)CO)N/N=C/C(O)C(O)C(O)C(O)CO` (configuration not stated), the T/C reads like this: under setting [3], 99 % of control; (dose: 50.0 mg/kg/injection, schedule: Q01DX005 (ip), vehicle: saline) 97 % of control; under setting [4], 98 % of control; (dose: 100.0 mg/kg/injection, schedule: Q01DX005 (ip), vehicle: saline) 98 % of control; under setting [5], 96 % of control; (dose: 200.0 mg/kg/injection, schedule: Q01DX005 (ip), vehicle: saline) 99 % of control.
With `Clc1ccccc1CN1COc2c(ccc3cccnc23)C1`, the T/C runs as follows: (dose: 100.0 mg/kg/injection, schedule: Q04DX003 (ip), vehicle: Klucel (hydroxypropylcellulose) (HPC)) 103 % of control; (dose: 200.0 mg/kg/injection, schedule: Q04DX003 (ip), vehicle: Klucel (hydroxypropylcellulose) (HPC)) 100 % of control; (dose: 400.0 mg/kg/injection, schedule: Q04DX003 (ip), vehicle: Klucel (hydroxypropylcellulose) (HPC)) 100 % of control.
On to `CN(C)Sc1ccc(Cl)cc1[N+](=O)[O-]`, for which the T/C runs as follows: under setting [2], 109 % of control; under setting [6], 100 % of control; (dose: 100.0 mg/kg/injection, schedule: Q01DX009 (ip), vehicle: saline) 97 % of control; under setting [7], 106 % of control; (dose: 200.0 mg/kg/injection, schedule: Q01DX009 (ip), vehicle: saline) 97 % of control.
Regarding `Cc1cc2sccc2cn1`, the T/C by setting is: under setting [1], 100 % of control; under setting [2], 100 % of control.
For the molecule `Cc1ccc(N)c(C(=O)Nc2ccc(Cl)cc2)c1`, the T/C by setting is: under setting [3], 104 % of control; under setting [4], 91 % of control; under setting [5], 92 % of control.
Turning to `CSC(=S)NNC1=NCCCCC1`, the T/C by setting is: (dose: 50.0 mg/kg/injection, schedule: Q01DX009 (ip), vehicle: Klucel (hydroxypropylcellulose) (HPC)) 106 % of control; (dose: 100.0 mg/kg/injection, schedule: Q01DX009 (ip), vehicle: Klucel (hydroxypropylcellulose) (HPC)) 97 % of control; (dose: 200.0 mg/kg/injection, schedule: Q01DX009 (ip), vehicle: Klucel (hydroxypropylcellulose) (HPC)) 87 % of control.
With `CCCCN(C(=O)C(C)C)c1nc(C)co1`, the T/C runs as follows: under setting [2], 112 % of control; under setting [6], 118 % of control; under setting [7], 96 % of control.
As for `Cc1ccc(NC(=O)N(CCCl)N=O)cc1NC(=O)N(CCCl)N=O`, the T/C was 120 % of control (dose: 0.1 mg/kg/injection, schedule: Q01DX009 (ip), vehicle: other); 116 % of control (dose: 0.1 mg/kg/injection, schedule: Q01DX009 (ip), vehicle: saline + alcohol); 113 % of control (dose: 0.25 mg/kg/injection, schedule: Q04DX003 (ip), vehicle: other); 118 % of control (dose: 0.5 mg/kg/injection, schedule: Q04DX003 (ip), vehicle: other); 161 % of control (dose: 0.75 mg/kg/injection, schedule: Q01DX009 (ip), vehicle: other); 159 % of control (dose: 1.0 mg/kg/injection, schedule: Q01DX009 (ip), vehicle: other). The T/C is 113 % of control (dose: 1.0 mg/kg/injection, schedule: Q04DX003 (ip), vehicle: other); 154 % of control (dose: 1.32 mg/kg/injection, schedule: Q01DX009 (ip), vehicle: saline with Tween-80); 175 % of control (dose: 1.5 mg/kg/injection, schedule: Q01DX009 (ip), vehicle: other); 181 % of control (dose: 2.0 mg/kg/injection, schedule: Q01DX009 (ip), vehicle: saline with Tween-80); 154 % of control (dose: 2.0 mg/kg/injection, schedule: Q04DX003 (ip), vehicle: other); 221 % of control (dose: 3.0 mg/kg/injection, schedule: Q01DX009 (ip), vehicle: other). For the same molecule, the T/C (dose: 3.0 mg/kg/injection, schedule: Q01DX009 (ip), vehicle: saline with Tween-80) was 155 % of control and 209 % of control; the T/C (dose: 3.13 mg/kg/injection, schedule: Q01DX009 (ip), vehicle: other) was 177 % of control; the T/C (dose: 4.5 mg/kg/injection, schedule: Q01DX009 (ip), vehicle: saline with Tween-80) is 245 % of control; the T/C (dose: 6.25 mg/kg/injection, schedule: Q01DX009 (ip), vehicle: other) was 209 % of control; the T/C (dose: 12.5 mg/kg/injection, schedule: Q01DX009 (ip), vehicle: other) is 222 % of control.
Regarding `CCN(CC)CCCNc1c2c(nc3c(Cl)cccc13)CCCC2`, the T/C reads like this: under setting [3], 100 % of control; under setting [4], 100 % of control.
In the case of `O=C1CCCC2=C1CC1=C(CCCC1=O)N2`, the T/C is, setting by setting: (dose: 50.0 mg/kg/injection, schedule: Q01DX005 (ip), vehicle: Klucel (hydroxypropylcellulose) (HPC)) 94 % of control; (dose: 100.0 mg/kg/injection, schedule: Q01DX005 (ip), vehicle: Klucel (hydroxypropylcellulose) (HPC)) 96 % of control; (dose: 200.0 mg/kg/injection, schedule: Q01DX005 (ip), vehicle: Klucel (hydroxypropylcellulose) (HPC)) 90 % of control.
Take `Nc1nc(N)c2ncn(Cc3c(Cl)cccc3Cl)c2n1`: the T/C reads like this: (dose: 50.0 mg/kg/injection, schedule: Q01DX005 (ip), vehicle: distilled water + alcohol) 95 % of control; (dose: 100.0 mg/kg/injection, schedule: Q01DX005 (ip), vehicle: distilled water + alcohol) 97 % of control; (dose: 200.0 mg/kg/injection, schedule: Q01DX005 (ip), vehicle: distilled water + alcohol) 93 % of control.
As for `Cc1ccc2c(c1)Sc1c(ccc3ccccc13)N2`, the T/C under setting [3] was 103 % of control, the T/C under setting [4] was 102 % of control and the T/C under setting [5] was 97 % of control.
For the molecule `CCCCCCC1C/C(=C/N(C)C)C(=O)O1` (configuration not stated), the T/C reads like this: (dose: 60.0 mg/kg/injection, schedule: Q01DX005 (ip), vehicle: Klucel (hydroxypropylcellulose) (HPC)) 92 % of control; (dose: 120.0 mg/kg/injection, schedule: Q01DX005 (ip), vehicle: Klucel (hydroxypropylcellulose) (HPC)) 104 % of control; (dose: 240.0 mg/kg/injection, schedule: Q01DX005 (ip), vehicle: Klucel (hydroxypropylcellulose) (HPC)) 92 % of control.
For `Cc1cc(N=[N+]=[N-])c2cc3c(cc2n1)OCO3`, the T/C is, setting by setting: (dose: 60.0 mg/kg/injection, schedule: Q01DX005 (ip), vehicle: saline with Tween-80) 103 % of control; (dose: 120.0 mg/kg/injection, schedule: Q01DX005 (ip), vehicle: saline with Tween-80) 95 % of control; (dose: 240.0 mg/kg/injection, schedule: Q01DX005 (ip), vehicle: saline with Tween-80) 94 % of control.
For `Cc1cc2c(cc1N)C(C)C1(CCC(=O)N2Cc2ccccc2)OCCO1` (configuration not stated), the T/C was 96 % of control under setting [3], 99 % of control under setting [4] and 93 % of control under setting [5].
Take `S=c1nc(N2CCOCC2)n(/C=C/c2ccccc2)c(=S)n1C(=N/C=C/c1ccccc1)N1CCOCC1`: the T/C reads like this: (dose: 25.0 mg/kg/injection, schedule: Q04DX003 (ip), vehicle: saline with Tween-80) 113 % of control; (dose: 50.0 mg/kg/injection, schedule: Q04DX003 (ip), vehicle: saline with Tween-80) 89 % of control; (dose: 100.0 mg/kg/injection, schedule: Q04DX003 (ip), vehicle: saline with Tween-80) 91 % of control and 97 % of control; (dose: 400.0 mg/kg/injection, schedule: Q04DX003 (ip), vehicle: saline with Tween-80) 87 % of control.
